# From ChEMBL document CHEMBL4049391, “Vicinal diaryl azole-based urea derivatives as potential cholesterol lowering agents acting through inhibition of SOAT enzymes” (Eur J Med Chem, 2017)
# Assays:
# Rattus norvegicus = species on record: Rattus norvegicus; test: Inhibition of rat microsomal SOAT assessed as reduction in cholesteryl oleate formation from oleoyl co-enzyme A at 10 uM pretreated for 15 mins followed by oleoyl co-enzyme A addition measured after 10 mins by HPTLC method relative to control
# [1] = Inhibition of rat microsomal SOAT assessed as reduction in cholesteryl oleate formation from oleoyl co-enzyme A pretreated for 15 mins followed by oleoyl co-enzyme A addition after 10 mins by HPTLC method
compound,measurement,setting,value
Cc1nc(-c2ccc(Cl)cc2)c(-c2ccc(NC(=O)NCCN3CCOCC3)cc2)s1,inhibition,Rattus norvegicus,12.3%
same,IC50,[1],118 µM
same,pIC50,[1],3.927
CCCCCCCNC(=O)Nc1ccc(-c2nonc2-c2ccc(C)cc2)cc1,inhibition,Rattus norvegicus,18.6%
CCCCCCCNC(=O)Nc1nc(-c2ccc(OC)cc2)c(-c2ccc(Cl)cc2)s1,inhibition,Rattus norvegicus,1.73%
same,IC50,[1],21.3 µM
same,pIC50,[1],4.672
CCCCNC(=O)Nc1nc(-c2ccc(C)cc2)c(-c2ccc(Cl)cc2)s1,inhibition,Rattus norvegicus,36.4%
same,IC50,[1],94 µM
same,pIC50,[1],4.0271
CCCCCCCCCCCCNC(=O)Nc1nc(-c2ccc(Cl)cc2)c(-c2ccc([N+](=O)[O-])cc2)s1,inhibition,Rattus norvegicus,1.77%
COc1cc(NC(=O)Nc2ccc(-c3sc(C)nc3-c3ccc(Cl)cc3)cc2)cc(OC)c1OC,inhibition,Rattus norvegicus,24.4%
CCCCCCCCCCCCNc1ccc(-c2sc(NC(=O)NCCCC)nc2-c2ccc(OC)cc2)cc1,inhibition,Rattus norvegicus,3.36%
Cc1nc(-c2ccc(F)cc2)c(-c2ccc(NC(=O)Nc3ccc(F)cc3F)cc2)s1,inhibition,Rattus norvegicus,4.97%
same,IC50,[1],196 µM
same,pIC50,[1],3.7081
CCCCNC(=O)Nc1nc(-c2ccc(OC)cc2)c(-c2ccc(NS(C)(=O)=O)cc2)s1,inhibition,Rattus norvegicus,5.45%
CCc1cccc(CC)c1NC(=O)Nc1ccc(-c2sc(C)nc2-c2ccc(OC)cc2)cc1,inhibition,Rattus norvegicus,31.6%
same,IC50,[1],43.6 µM
same,pIC50,[1],4.3606
Cc1ccc(-c2nc(C)sc2-c2ccc(NC(=O)Nc3ccccc3)cc2)cc1,inhibition,Rattus norvegicus,13.4%
O=C(Nc1nc(-c2ccc(Cl)cc2)c(-c2ccc([N+](=O)[O-])cc2)s1)Nc1ccc(F)cc1F,inhibition,Rattus norvegicus,3.28%
CC(=O)Nc1ccc(-c2sc(NC(=O)Nc3ccc(F)cc3F)nc2-c2ccc(F)cc2)cc1,inhibition,Rattus norvegicus,23.3%
Cc1ccc(-c2nc(NC(=O)Nc3ccc(F)cc3F)sc2-c2ccc(Cl)cc2)cc1,inhibition,Rattus norvegicus,3.93%
CCCCCCCNC(=O)Nc1ccc(-c2nonc2-c2ccc(F)cc2)cc1,inhibition,Rattus norvegicus,30.9%
CCCCNC(=O)Nc1nc(-c2ccc(F)cc2)c(-c2ccc([N+](=O)[O-])cc2)s1,inhibition,Rattus norvegicus,2.98%
Cc1ccc(-c2nc(NC(=O)Nc3ccc(F)cc3F)sc2-c2ccc([N+](=O)[O-])cc2)cc1,inhibition,Rattus norvegicus,3.86%
Cc1nc(-c2ccc(F)cc2)c(-c2ccc(NC(=O)Nc3ccccc3)cc2)s1,inhibition,Rattus norvegicus,16.8%
CCCCNC(=O)Nc1ccc(-c2sc(C)nc2-c2ccc(OC)cc2)cc1,inhibition,Rattus norvegicus,40%
CCCCNC(=O)Nc1nc(-c2ccc(Cl)cc2)c(-c2ccc(NS(C)(=O)=O)cc2)s1,inhibition,Rattus norvegicus,5.63%
CCCCNC(=O)Nc1nc(-c2ccc(Cl)cc2)c(-c2ccc([N+](=O)[O-])cc2)s1,inhibition,Rattus norvegicus,3.02%
CCCCCCCCCCCCNc1ccc(-c2sc(NC(=O)Nc3ccc(F)cc3F)nc2-c2ccc(OC)cc2)cc1,inhibition,Rattus norvegicus,1.77%
CCCCNC(=O)Nc1nc(-c2ccc(C)cc2)c(-c2ccc(NC(C)=O)cc2)s1,inhibition,Rattus norvegicus,5.23%
CCCCNC(=O)Nc1ccc(-c2nonc2-c2ccc(F)cc2)cc1,inhibition,Rattus norvegicus,54.5%
same,IC50,[1],12.3 µM
same,pIC50,[1],4.908
CCCCNC(=O)Nc1nc(-c2ccc(Cl)cc2)c(-c2ccc(NC(C)=O)cc2)s1,inhibition,Rattus norvegicus,3.75%
CCc1cccc(CC)c1NC(=O)Nc1ccc(-c2nonc2-c2ccc(F)cc2)cc1,inhibition,Rattus norvegicus,44.9%
same,IC50,[1],9.73 µM
same,pIC50,[1],5.011
CCCCNC(=O)Nc1nc(-c2ccccc2)c(-c2ccccc2)s1,inhibition,Rattus norvegicus,2.56%
Cc1ccc(-c2nonc2-c2ccc(NC(=O)Nc3ccc(F)cc3F)cc2)cc1,inhibition,Rattus norvegicus,13.5%
same,IC50,[1],20.1 µM
same,pIC50,[1],4.697
CS(=O)(=O)Nc1ccc(-c2sc(NC(=O)Nc3ccc(F)cc3F)nc2-c2ccc(Cl)cc2)cc1,inhibition,Rattus norvegicus,6.39%
Cc1ccc(-c2nc(C)sc2-c2ccc(NC(=O)Nc3c(C(C)C)cccc3C(C)C)cc2)cc1,inhibition,Rattus norvegicus,11.2%
CCc1cccc(CC)c1NC(=O)Nc1ccc(-c2nonc2-c2ccc(C)cc2)cc1,inhibition,Rattus norvegicus,0.34%
COc1ccc(-c2nc(NC(=O)Nc3ccccc3)sc2-c2ccc(Cl)cc2)cc1,inhibition,Rattus norvegicus,56.9%
same,IC50,[1],10.7 µM
same,pIC50,[1],4.972
CCCCNC(=O)Nc1nc(-c2ccc(OC)cc2)c(-c2ccc([N+](=O)[O-])cc2)s1,inhibition,Rattus norvegicus,3.12%
CS(=O)(=O)Nc1ccc(-c2sc(NC(=O)Nc3ccc(F)cc3F)nc2-c2ccc(F)cc2)cc1,inhibition,Rattus norvegicus,18.9%
O=C(Nc1ccc(-c2nonc2-c2ccc(Cl)cc2)cc1)Nc1ccc(F)cc1F,inhibition,Rattus norvegicus,21.2%
CCCCNC(=O)Nc1nc(-c2ccc(OC)cc2)c(-c2ccc(NC(C)C)cc2)s1,inhibition,Rattus norvegicus,4.67%
Cc1ccc(-c2nc(NC(=O)Nc3ccccc3)sc2-c2ccc(Cl)cc2)cc1,inhibition,Rattus norvegicus,9.58%
O=C(Nc1ccccc1)Nc1nc(-c2ccccc2)c(-c2ccccc2)s1,inhibition,Rattus norvegicus,10.6%
same,IC50,[1],17.7 µM
same,pIC50,[1],4.7512
CCCCCCCCCCCCNC(=O)Nc1ccc(-c2sc(C)nc2-c2ccc(C)cc2)cc1,inhibition,Rattus norvegicus,46.2%
same,IC50,[1],12.2 µM
same,pIC50,[1],4.914
CC(=O)Nc1ccc(-c2sc(NC(=O)Nc3ccc(F)cc3F)nc2-c2ccc(C)cc2)cc1,inhibition,Rattus norvegicus,3.06%
CCCCNC(=O)Nc1nc(-c2ccc(C)cc2)c(-c2ccc(NS(C)(=O)=O)cc2)s1,inhibition,Rattus norvegicus,32.7%
CCCCNC(=O)Nc1ccc(-c2sc(C)nc2-c2ccc(F)cc2)cc1,inhibition,Rattus norvegicus,59.9%
same,IC50,[1],9.58 µM
same,pIC50,[1],5.0186
CCCCCCCCCCCCNC(=O)Nc1nc(-c2ccccc2)c(-c2ccccc2)s1,inhibition,Rattus norvegicus,1.2%
CCCCNC(=O)Nc1nc(-c2ccc(C)cc2)c(-c2ccc([N+](=O)[O-])cc2)s1,inhibition,Rattus norvegicus,3.86%
CCCCCCCCCCCCNC(=O)Nc1ccc(-c2nonc2-c2ccc(F)cc2)cc1,inhibition,Rattus norvegicus,50.1%
same,IC50,[1],12.4 µM
same,pIC50,[1],4.905
CCCCCCCNC(=O)Nc1nc(-c2ccc(OC)cc2)c(-c2ccc([N+](=O)[O-])cc2)s1,inhibition,Rattus norvegicus,1.52%
CCCCCCCNC(=O)Nc1ccc(-c2nonc2-c2ccc(Cl)cc2)cc1,inhibition,Rattus norvegicus,4.3%
Cc1nc(-c2ccc(Cl)cc2)c(-c2ccc(NC(=O)Nc3ccc(F)cc3F)cc2)s1,inhibition,Rattus norvegicus,1.3%
COc1ccc(-c2nc(C)sc2-c2ccc(NC(=O)Nc3cc(OC)c(OC)c(OC)c3)cc2)cc1,inhibition,Rattus norvegicus,25.4%
COc1ccc(-c2nc(NC(=O)Nc3ccc(F)cc3F)sc2-c2ccc(NC(C)=O)cc2)cc1,inhibition,Rattus norvegicus,39%
same,IC50,[1],31.9 µM
same,pIC50,[1],4.496
O=C(Nc1nc(-c2ccc(F)cc2)c(-c2ccc([N+](=O)[O-])cc2)s1)Nc1ccc(F)cc1F,inhibition,Rattus norvegicus,3.59%
COc1ccc(-c2nc(C)sc2-c2ccc(NC(=O)NCCN3CCOCC3)cc2)cc1,inhibition,Rattus norvegicus,21.5%
COc1ccc(-c2nc(NC(=O)Nc3ccc(F)cc3F)sc2-c2ccc(NS(C)(=O)=O)cc2)cc1,inhibition,Rattus norvegicus,19.6%
same,IC50,[1],19 µM
same,pIC50,[1],4.721
COc1ccc(-c2nc(C)sc2-c2ccc(NC(=O)Nc3c(C(C)C)cccc3C(C)C)cc2)cc1,inhibition,Rattus norvegicus,30.1%
Cc1ccc(-c2nc(C)sc2-c2ccc(NC(=O)Nc3ccc(F)cc3F)cc2)cc1,inhibition,Rattus norvegicus,26.6%
CCc1cccc(CC)c1NC(=O)Nc1nc(-c2ccc(F)cc2)c(-c2ccc(Cl)cc2)s1,inhibition,Rattus norvegicus,1.58%
CCCCNC(=O)Nc1ccc(-c2nonc2-c2ccc(C)cc2)cc1,inhibition,Rattus norvegicus,2.83%
CCCCNC(=O)Nc1ccc(-c2nonc2-c2ccc(Cl)cc2)cc1,inhibition,Rattus norvegicus,23%
CCCCNC(=O)Nc1nc(-c2ccc(OC)cc2)c(-c2ccc(NC(C)=O)cc2)s1,inhibition,Rattus norvegicus,39.5%
same,IC50,[1],41.3 µM
same,pIC50,[1],4.384
Cc1nc(-c2ccc(Cl)cc2)c(-c2ccc(NC(=O)Nc3ccccc3)cc2)s1,inhibition,Rattus norvegicus,6.88%
Cc1ccc(-c2nc(NC(=O)Nc3ccc(F)cc3F)sc2-c2ccc(NS(C)(=O)=O)cc2)cc1,inhibition,Rattus norvegicus,2.17%
CCCCNC(=O)Nc1nc(-c2ccc(OC)cc2)c(-c2ccc(Cl)cc2)s1,inhibition,Rattus norvegicus,27.6%
same,IC50,[1],62.9 µM
same,pIC50,[1],4.2014
O=C(Nc1nc(-c2ccccc2)c(-c2ccccc2)s1)Nc1ccc(F)cc1F,inhibition,Rattus norvegicus,3.03%
CCCCCCCCCCCCNC(=O)Nc1ccc(-c2sc(C)nc2-c2ccc(Cl)cc2)cc1,inhibition,Rattus norvegicus,5.75%
COc1ccc(-c2nc(C)sc2-c2ccc(NC(=O)Nc3ccc(F)cc3F)cc2)cc1,inhibition,Rattus norvegicus,22.3%
COc1ccc(-c2nc(NC(=O)Nc3ccc(F)cc3F)sc2-c2ccc([N+](=O)[O-])cc2)cc1,inhibition,Rattus norvegicus,3.4%
COc1ccc(-c2nc(NC(=O)Nc3ccc(F)cc3F)sc2-c2ccc(Cl)cc2)cc1,inhibition,Rattus norvegicus,2.98%
CCc1cccc(CC)c1NC(=O)Nc1nc(-c2ccc(C)cc2)c(-c2ccc([N+](=O)[O-])cc2)s1,inhibition,Rattus norvegicus,1.03%
CCc1cccc(CC)c1NC(=O)Nc1nc(-c2ccc(C)cc2)c(-c2ccc(Cl)cc2)s1,inhibition,Rattus norvegicus,1.52%
CCCCNC(=O)Nc1nc(-c2ccc(F)cc2)c(-c2ccc(NS(C)(=O)=O)cc2)s1,inhibition,Rattus norvegicus,0.43%
Cc1nc(-c2ccc(F)cc2)c(-c2ccc(NC(=O)NCCN3CCOCC3)cc2)s1,inhibition,Rattus norvegicus,29.3%
CCCCNC(=O)Nc1nc(-c2ccc(F)cc2)c(-c2ccc(NC(C)=O)cc2)s1,inhibition,Rattus norvegicus,15.4%
O=C(Nc1ccc(-c2nonc2-c2ccc(F)cc2)cc1)Nc1ccc(F)cc1F,inhibition,Rattus norvegicus,47.1%
Cc1ccc(-c2nc(C)sc2-c2ccc(NC(=O)NCCN3CCOCC3)cc2)cc1,inhibition,Rattus norvegicus,19%
CCc1cccc(CC)c1NC(=O)Nc1nc(-c2ccc(C)cc2)c(-c2ccc(N)cc2)s1,IC50,[1],103 µM
same,pIC50,[1],3.9863
CCCCNC(=O)Nc1nc(-c2ccc(F)cc2)c(-c2ccc(Cl)cc2)s1,inhibition,Rattus norvegicus,3.3%
COc1cc(NC(=O)Nc2ccc(-c3sc(C)nc3-c3ccc(C)cc3)cc2)cc(OC)c1OC,inhibition,Rattus norvegicus,21.9%
CCCCCCCCCCCCNC(=O)Nc1ccc(-c2sc(C)nc2-c2ccc(OC)cc2)cc1,inhibition,Rattus norvegicus,27.5%
CCCCCCCCCCCCNC(=O)Nc1nc(-c2ccc(F)cc2)c(-c2ccc(Cl)cc2)s1,inhibition,Rattus norvegicus,1.91%
CCCCCCCNC(=O)Nc1ccc(-c2sc(C)nc2-c2ccc(OC)cc2)cc1,inhibition,Rattus norvegicus,22.2%
CCCCCCCCCCCCNC(=O)Nc1ccc(-c2nonc2-c2ccc(Cl)cc2)cc1,inhibition,Rattus norvegicus,18.5%
Cc1nc(-c2ccc(Cl)cc2)c(-c2ccc(NC(=O)Nc3c(C(C)C)cccc3C(C)C)cc2)s1,inhibition,Rattus norvegicus,12.6%
CCCCCCCNC(=O)Nc1ccc(-c2sc(C)nc2-c2ccc(C)cc2)cc1,inhibition,Rattus norvegicus,33.4%
CCc1cccc(CC)c1NC(=O)Nc1ccc(-c2nonc2-c2ccc(Cl)cc2)cc1,inhibition,Rattus norvegicus,8.25%
CC(=O)Nc1ccc(-c2sc(NC(=O)Nc3ccc(F)cc3F)nc2-c2ccc(Cl)cc2)cc1,inhibition,Rattus norvegicus,2.03%
